Entries after “also recorded” stand apart in the source; their conditions may differ. Like-named read-outs stand apart in the source and are kept apart here.
Legend:
Type in all cases: cell-based
[1] = system: exsheathed third-stage larvae (xL3) of Haemonchus contortus; experiment: Dose-response assay, inhibition of larval motility; settings: for xL3 Motility (72 h) Inhibition (%): concentration not given; for IC50: Haemonchus contortus, 72 h incubation, mean ± SEM, three independent experiments in triplicate
Method: (§1) Haemonchus contortus (Haecon-5 strain) was maintained in experimental sheep, in accordance with institutional animal ethics approval (permit no. 1714374; The University of Melbourne). Helminth-free Merino sheep (male; eight months of age) were inoculated orally with 7000 third-stage larvae (L3s) of H. contortus. Faecal samples containing H. contortus eggs were collected every day from 21 days following inoculation. These samples were incubated at 27 °C for one week to produce L3s, which were harvested and sieved through two layers of nylon mesh ([…] pore size; Rowe Scientific, Australia) to remove debris and dead larvae, and then stored at 11 °C for up to 6 months until use. To produce exsheathed third-stage larvae (xL3s) for in vitro assays, L3s were incubated in 0.15% (v/v) sodium hypochlorite for 20 min at 37 °C followed by five washes in 0.9% sterile saline by centrifugation at 600× g (5 min) at room temperature (22–24 °C).
Three compounds (designated MPK18, MPK334 and YAK308) shown to have activity against H. contortus in the primary screen were evaluated for their potency by estimating their half maximal inhibitory concentrations (IC50), calculated in a dose-response assay. In brief, compounds were titrated (18-points, 2-fold serial dilution in 50 μL of LB*, 100 µM down to 0.76 nM), in 96-well microtitre plates and xL3s were dispensed in 50 µL at a density of ~300 per well. All plates were incubated at 38 °C and 10% (v/v) CO2 with >90% humidity. After 72 h of incubation, a video recording (5 s) was taken of each well in the same camera settings as the primary screen (see Section 3.3), and larval motility measured. The motility index (Mi) was calculated from video data using the unique algorithm written in a custom macro, and analysed through the program ImageJ (v.2.0.0, Fiji). Mi data were normalised to a percentage compared with negative control (LB* + 0.5% DMSO). Monepantel and moxidectin were diluted in the same manner, and used as positive control compounds. Assays were performed in triplicate, three times, on separate days. To establish IC50 values, compound concentrations were log10-transformed, fitted using a variable slope four-parameter equation, constraining the maximum value to 100% using a least squares (ordinary) fit model employing GraphPad Prism (v. 9.0.2) software.

[2] = system: exsheathed third-stage larvae (xL3) of Haemonchus contortus; experiment: Primary phenotypic screen on xL3s at 20 µM (video recording, 72 h); settings: for proportion of xL3s exhibiting the phenotype in the primary screen: 72 h, visual inspection of video recordings; for phenotype induced in xL3s in the primary screen: 72 h of exposure
Method: A library containing 245 compounds (Supplementary Table S1) was curated by the authors (T.K. and B.L.) at the Institute of Pharmaceutical and Medicinal Chemistry, Heinrich-Heine-University Düsseldorf, Germany. Individual compounds were dissolved in 100% high-performance liquid chromatography-grade dimethyl sulfoxide (DMSO; Merck, USA) to achieve stock concentrations of 20 mM. For screening, individual compounds were diluted further to the final concentration of 20 µM in Luria Bertani broth (LB) supplemented with 100 U/mL of penicillin, 100 μg/mL of streptomycin and 0.25 μg/mL of amphotericin B (designated LB*), and tested for activity in vitro against H. contortus.
as §1
Compounds were screened at 20 μM on H. contortus xL3s using an established assay. In brief, diluted test-compounds, negative controls (LB* + 0.5% DMSO) and two positive controls [20 μM of monepantel (Zolvix, Novartis Animal Health, Switzerland) and 20 μM of moxidectin (Cydectin, Virbac, France)] were added to wells of the 96-well microtiter plates (Corning, USA), and xL3s were dispensed at ~300/well to a final volume of 100 µL. Following a 72 h-incubation at 38 °C and 10% (v/v) CO2 at >90% humidity, a video recording (5 s) was taken of each well of the 96-well microtitre plate containing xL3s using a gray–scale camera (Rolera Bolt Scientific CMOS, Teledyne QImaging, Tucson, AZ, USA) and a motorised X–Y axis stage (BioPoint 2, Ludl Electronics Products, Hawthorne, CA, USA) attached to a stereomicroscope (SZ61, Olympus, Shinjuku, Japan). Primary screening was performed in duplicate. A compound was recorded as having activity if it altered worm morphology (phenotype) after 72 h of incubation.

[3] = system: exsheathed third-stage larvae (xL3) / fourth-stage larvae (L4) of Haemonchus contortus; experiment: Dose-response assay, inhibition of larval development (xL3 to L4) and phenotype over 7 days; settings: seven days; for phenotype of larvae after exposure for 7 days / proportion of larvae exhibiting the phenotype at 100 µM: 100 µM; for phenotype of larvae after exposure for 7 days: xL3s/L4s; for IC50: Haemonchus contortus, 168 h
Method: as §1
Following the measurement of larval motility at 72 h, plates containing xL3s were incubated for four more days at 38 °C [10% (v/v) CO2 and >90% relative humidity] to test the active compounds (MPK18, MPK334 and YAK308) for their effect on the larval development over 7 days. Subsequently, worms were fixed in 1% iodine, and the rate of larval development was assessed microscopically appraising the presence (L4) or absence (xL3) of mouth and pharynx, and direct comparison with negative (untreated) controls (LB* + 0.5% DMSO). Thirty worms from each well were examined at 50-times magnification, and the number of L4s was expressed as a percentage of the total number. Assays were performed in triplicate, three times, on separate days. To establish IC50 values, compound concentrations were log10-transformed, fitted using a variable slope four-parameter equation with constraining the top value to 100% using a least squares (ordinary) fit model using GraphPad Prism (v. 9.0.2) software.

[4] = Toxicity on HepG2 cells (crystal violet staining); settings: HepG2 human hepatoma cells
Method: HepG2 human hepatoma cells were seeded into wells of a 96-well microtitre plate in 80 µL of Dulbecco’s modified eagle medium (DMEM), supplemented with 10% foetal bovine serum, 100 U/mL of penicillin, 100 µg/mL of streptomycin and 0.25 µg/mL of amphotericin B (DMEM*) at a density of 1 × 10^5 cells per well. Cells were allowed to adhere for 16 h at 37 °C and 5% (v/v) CO2 at >90% humidity, and incubated with individual, serially-diluted compounds (7-points, 2-fold dilution in DMEM*, from 100 µM to 1.56 µM) in a final volume of 100 µL. Doxorubicin (10 µM) and DMEM* + 0.25% DMSO (vehicle), serving as positive and negative controls, respectively, were added to the individual 96-well plates. Monepantel and moxidectin were also serially diluted—prepared in the same manner as active compounds—and used as ‘negative’ reference controls. After 48 h of incubation, cellular viability was determined by the crystal violet staining assay. The absorbance at 595 nm of treated cells was compared with that of the controls (exposed only to the vehicle, with 100% viability). Compounds and controls were tested in triplicate. To determine the half cytotoxic concentration (CC50) values, compound concentrations were log10-transformed, fitted using a variable slope four-parameter equation with a least squares (ordinary) fit model employing GraphPad Prism (v. 9.0.2) software.

[5] = mean ± SEM, read-out: L4 Development (7 days) IC50 ± SEM

SMILES | xL3 Motility (72 h) Inhibition (%) [1] [%] | IC50 [1] [µM] | proportion of xL3s exhibiting the phenotype in the primary screen [2] | phenotype induced in xL3s in the primary screen [2] | phenotype of larvae after exposure for 7 days [3] | IC50 ([3]; read-out: concentration at which active on larval development (IC50 not determined)) [µM] | CC50 at 48 h [4] [µM] | proportion of larvae exhibiting the phenotype at 100 µM [3] [%] | IC50 [3, 5] [µM] | phenotype induced in xL3s in the primary screen ([2]; listed as YAK 308)
Cc1ccc(/C=C/C(=O)NOCc2ccccc2)cc1 [MPK18] | 30.0 | 45.2 ± 4.6 | ~ 50% | coiled | not observed; also recorded: Wild type | > 25 | > 100 |  |  | 
O=C(/C=C/c1ccccc1)c1ccc(Br)cc1O [MPK334] | 74.2 | 17.1 ± 4.2 | ~ 50% | coiled | curved |  | > 100 | 100 | 12.3 ± 2.3 | 
C[C@](C#N)(COc1cc(C#N)ccc1C(F)(F)F)NC(=O)c1ccc(SC(F)(F)F)cc1 [Monepantel, monepantel, reference compound] | 90.3 | 0.6 ± 0.1 |  | Coiled |  |  | > 100 |  | 0.4 ± 0.05 | 
CO/N=C1\C[C@]2(C[C@@H]3C[C@@H](C/C=C(\C)C[C@@H](C)/C=C/C=C4\CO[C@@H]5[C@H](O)C(C)=C[C@@H](C(=O)O3)[C@]45O)O2)O[C@H](/C(C)=C/C(C)C)[C@H]1C [Moxidectin, moxidectin, reference compound] | 85.1 | 0.8 ± 0.2 |  | Relaxed |  |  | > 100 |  | 12.4 ± 0.1 | 
COc1cc(OC)cc(C(=O)Nc2nc(-c3ccccc3)cs2)c1 [YAK308] | 34.6 | 52.7 ± 6.7 | ~ 90% | curved | evisceration and evi |  | > 100 | 22 | 6.5 ± 1.6 | Curved
